Legend:
Design in all cases: unit not given here
[1] = system: Murine leukemia virus (MuLV); experiment: UV-XC plaque assay against murine retroviruses; type: cell-based; details: MuLV in SC-1 cells
Description: The compounds wore evaluated for antiviral activity against Murine leukemia virus (MuLV) strains using the UV-XC plaque assay (Rowe, et al., "Virology," 42:1136, 1970).
The MuLV strains were grown in feral mouse cells (SC-1) and used for antiviral tests using the UV-XC plaque assay. Briefly, SC-1 coils are grown as monolayers in 4-well tissue culture plates and inoculated with approximately 50-100 plaque forming units of MuLV in 0.5 ml of 5% EMEM containing 20 ug/ml DEAE/Dextran. After 1 hr. adsorbtion, the inoculum is removed and 5 ml of 5% EMEM containing three-fold dilutions of the appropriate drug are added. Five days later, the cultures are UV-irradiated with an ultraviolet lamp and rat XC sarcoma cells are added to the cultures. Three-four days after UV-irradiation, the cell cultures are stained with Giemsa stain and the plaques are enumerated. Antiviral activity is expressed in terms of the reduction in the mean number of UV-XC plaques counted in the drug treated, virus-infected cultures compared with mean number of plaques counted in untreated, virus-infected control cultures. The ID50 for each drug was determined.

[2] = system: Human cytomegalovirus (HCMV) strain (AD169); experiment: Plaque reduction assay against human cytomegalovirus; type: cell-based; details: HCMV strain AD169 in MRC-5 cells
Description: (§1) The titer of HSV strains is determined by a plaque titration method (Roizman and Roane,"Virology," 15:75-79, 1961). Tissue culture 24-well petri dishes are seeded with cells and used for assays when approximately 75% monolayer. Volumes (0.1ml) of logarithmic dilutions of the virus strain are inoculated onto each of triplicate wells, and absorbed for one hour with intermittent shaking. The inoculum thereafter is removed, and 1 ml of 5-10% EMEM containing 0.3% human immune serum globulin is added. After a 48 hr. incubation period at 37°C in a 5% CO2 atmosphere, the overlay medium is removed and the cell sheets stained with Giemsa stain. The number of plaques is counted, the triplicate is averaged, and the number of plaque-forming units per ml is calculated.
(§2) The compounds are tested for activity against the herpes simplex strains using a stock solution of each compound freshly prepared. Appropriate dilution of each compound are made in 10% EMEM before usage. The antiviral efficacy of each compound is determined using the plaque reduction assay described above. Briefly, tissue culture 24-well plates, with approximately 75% cell monolayer are inoculated with approximately 50 plaque forming units of HSV per 0.1 ml, and the virus adsorbed for 1 hr, with intermittent shaking. After removal of the inoculum, 1 ml of 10% EMEM containing two-fold dilutions of the appropriate drug are added in triplicates. Triplicate wells/plate receives no drug and are used as a virus control. After a 48-hour incubation period, at 37°C in a 5% CO2 atmosphere, the overlay medium is removed, the cells stained as described above, and plaques are counted. The counts of triplicate wells are averaged, and the number of plaques in the presence of each drug dilution are calculated.
(§3) The antiviral potency of the drug is determined by ID50, the drug concentration necessary to reduce the number of plaques by 50% of those in the virus control cultures.
Human cytomegalovirus (HCMV) strain (AD169) was grown and titered at 37° in human embryonic lung (diploid) cells, MRC-5, and used for the antiviral assay.
The compounds are tested for activity against the HCMV using the procedure for the plaque reduction assay described above.

HSV-1 [3] = experiment: Colorimetric dye-uptake assay (neutral red), herpes simplex virus type 1; type: cell-based, Herpes simplex virus (HSV); details: vero cells, 48 hr incubation, neutral red stain; ID50 by linear regression
Description: (§4) Herpes simplex virus (HSV) strains wars grown and titered at 37°C in vero cells (African Green Monkey Kidney cells) and used for virus work before the tenth passage.
(§5) Cells were grown and maintained in Earle's Minimum Essential Medium (EMEM), Gibco Laboratories, supplemented with 0.75% sodium bicarbonate, 2mM 1-glutamine, Pen-strep. and 5-10% fetal calf serum.
(§6) For the primary screening, a colorimetric dye-uptake assay (McLaren, C., et al., "Antiviral Research," 3:323, 1983) is used employing rapidly growing vero cells. Briefly, cells, compound and virus dilutions are added onto 96-well tissue culture plates simultaneously using the cells, viruses and medium described above. After 48 hr. incubation at 37°C in 5% CO2 atmosphere, the overlay medium is removed and the cell sheets are stained with 0.04% neutral red solution. After 30 min. incubation at 37°C, the cell sheets are washed and the stain is eluted with 0.05 M sodium monophosphate in 47% ethanol and the O.D. is determined at 540 nm wave length.
(§7) The 50% inhibitory dose (ID50) for each drug is determined by linear regression analysis.

HSV-2 [4] = experiment: Colorimetric dye-uptake assay (neutral red), herpes simplex virus type 2; type: cell-based, Herpes simplex virus (HSV); details: vero cells, 48 hr incubation, neutral red stain; ID50 by linear regression
Description: as §4, §5, §6, §7

HSV-1 [5] = experiment: Plaque reduction assay, herpes simplex virus type 1; type: cell-based, Herpes simplex virus (HSV); details: vero cells, 48-hour incubation; concentration reducing number of plaques by 50%
Description: as §4, §5, §1, §2, §3

HSV-2 [6] = experiment: Plaque reduction assay, herpes simplex virus type 2; type: cell-based, Herpes simplex virus (HSV); details: vero cells, 48-hour incubation; concentration reducing number of plaques by 50%
Description: as §4, §5, §1, §2, §3

Cc1cn([C@H]2C[C@H](N=[N+]=[N-])[C@@H](CO)O2)c(=O)[nH]c1=O [3'-Azido-3'-deoxythymidine, reference compound]
Muly ID50 [1]: 0.0001

Nc1nc2c(ncn2COC(CO)CO)c(=O)[nH]1 [9-(1,3-Dihydroxypropoxymethyl)guanine, reference compound]
CMV ID50 [2]: 1.2

Nc1ncnc2c1ncn2C[C@@H](CO)OCP(=O)(O)O [(S)-9-(3-Hydroxy-2-phosphonomethoxy)propyl adenine, reference compound]
Dye-Uptake HSV-1 ID50 (HSV-1 [3]): 15.1
Dye-Uptake HSV-2 ID50 (HSV-2 [4]): > 25
Plaque Reduction HSV-1 ID50 (HSV-1 [5]): 13.8
Plaque Reduction HSV-2 ID50 (HSV-2 [6]): 35.8
CMV ID50 [2]: 0.13
Muly ID50 [1]: 2.0

Nc1nc2c(ncn2COCCO)c(=O)[nH]1 [Acyclovir, reference compound]
Dye-Uptake HSV-1 ID50 (HSV-1 [3]): 0.5
Dye-Uptake HSV-2 ID50 (HSV-2 [4]): 1.0
Plaque Reduction HSV-1 ID50 (HSV-1 [5]): 0.3
Plaque Reduction HSV-2 ID50 (HSV-2 [6]): 1.5

CCOP(=O)(O)COCCn1cnc2c(=O)[nH]c(N)nc21 [Ex. 7, 9-(2-(Monoethylphosphonomethoxy)ethyl)guanine]
Dye-Uptake HSV-1 ID50 (HSV-1 [3]): 12
Dye-Uptake HSV-2 ID50 (HSV-2 [4]): 8
Plaque Reduction HSV-1 ID50 (HSV-1 [5]): 4.8
Plaque Reduction HSV-2 ID50 (HSV-2 [6]): 5.1
CMV ID50 [2]: 0.23
Muly ID50 [1]: 0.56

CC(COCP(=O)(O)O)n1cnc2c(=O)[nH]c(N)nc21 (centres unmarked) [Ex. 13]
Dye-Uptake HSV-1 ID50 (HSV-1 [3]): 8.7
Dye-Uptake HSV-2 ID50 (HSV-2 [4]): 10.4
Plaque Reduction HSV-1 ID50 (HSV-1 [5]): 3.0
Plaque Reduction HSV-2 ID50 (HSV-2 [6]): 3.3

Nc1nc2c(ncn2CCCOCP(=O)(O)O)c(=O)[nH]1 [Ex. 18]
CMV ID50 [2]: 6.0
Muly ID50 [1]: 0.04

Nc1ncc2ncn(CCOCP(=O)(O)O)c2n1 [Ex. 25]
CMV ID50 [2]: <0.032

COP(=O)(O)COCCn1cnc2c(=O)[nH]c(N)nc21 [Ex. 32]
Dye-Uptake HSV-1 ID50 (HSV-1 [3]): 1.5
Dye-Uptake HSV-2 ID50 (HSV-2 [4]): 3.8
Plaque Reduction HSV-1 ID50 (HSV-1 [5]): 1.6
Plaque Reduction HSV-2 ID50 (HSV-2 [6]): 1.2
Muly ID50 [1]: 0.05

CCCOP(=O)(O)COCCn1cnc2c(=O)[nH]c(N)nc21 [Ex. 33]
Plaque Reduction HSV-1 ID50 (HSV-1 [5]): 9.7
Plaque Reduction HSV-2 ID50 (HSV-2 [6]): 9.9

CC(C)OP(=O)(O)COCCn1cnc2c(=O)[nH]c(N)nc21 [Ex. 34]
Plaque Reduction HSV-1 ID50 (HSV-1 [5]): 74.9
Plaque Reduction HSV-2 ID50 (HSV-2 [6]): 34.8
Muly ID50 [1]: 1.72

From patent EP0269947B2, “Antiviral phosphonomethoxyalkylene purine and pyrimidine derivatives” (priority 1986, dated 1988)
